# Laboratory results from patent publication EP0452101B1, “Spiro bridged and unbridged heterocyclic compounds” (ISRAEL INSTITUTE FOR BIOLOGICAL RESEARCH, priority 1990, dated 1991).
# Read-outs that look alike come from different tables or passages of the source.
# Tests used:
# [1] = test system: Male white mice of the CD-1 strain; assay: Pharmacodynamic profile and general toxicity, Part B (signs, mortality, LD50); format: in vivo; set-up: key to Altered spontaneous motor activity (Mot): increased (inc); decreased (dec); key to Piloerection (Pil) / Hypothermia (Hyp) / Salivation (Sal) / Lacrimation (Lac) / Diarrhea (Dia) / Mydriasis (Myd): sli = slight; mod = moderate; sev = severe; conditions: for Analgesia (Ana) / Convulsive seizure (Con) / Respiratory distress (Res) / Tremors (Tre): animals affected/treated
# Text: Male white mice of the CD-1 strain (Charles River, UK), within the body weight range of 18-26 g, were used throughout this study, carried out on AF123, AF125 and AF125(N).
# Furthermore, these initial trials clearly established that the major signs of reactions to treatment consisted primarily of signs characteristic for potential cholinomimetic activity of the test material, such as tremors, salivation, lacrimation, diarrhea, analgesia, hypothermia and vasodilation. […]
# muscarinic receptors = assay: (-)3H-QNB binding to rat cerebral cortex homogenates with and without Cu++ treatment
# [2] = test system: CA1 neurons in the hippocampal slice; assay: Electrophysiological evaluation in rat hippocampal slices
# Protocol: In general terms the effects of microdrops of AF150, ACh and PZ were applied to rat hippocampal cells recorded intracellularly. The exact concentrations of the drug at the receptor sites are not known, using this method. However, this method has an advantage over the perfusion method, in that it gives a more correct picture from the electrophysiological point of view (Segal, loc cit).
# Intracellular responses to AF150 of CA1 neurons in the hippocampal slice were recorded, using the method of Segal. Small hyperpolarizing current pulses (current traces not shown) were alternated with stimulation of the Schaffer-commissural afferents producing postsynaptic potentials.
# AF64A-treated rats = assay: Passive avoidance (PA) in AF64A-treated rats; format: in vivo; conditions: for Retention latency after 72 hours: i.p.
# Text: This animal model mimics to a certain extent the cholinergic hypofunction in SDAT (Fisher and Hanin, Ann. Rev. Pharmacol. Toxicol. 26: 161-181, 1986). The method described in Fisher et al (J. Pharmacol. Exptl. Therap., 1991, in the press) and in Fisher et al (Neurosci. Lett. 102: 325-331, 1989) was used here.
# No significant differences were found among the different groups of animals tested in the initial latency test; the initial latency ranged from 20 and 31 seconds. In all the experiments using AF150, the compound as free base was dissolved in 10 mM phosphate buffer having pH 7.35.
compound,measurement,setting,value
"CC1=NCC2(CN3CCC2CC3)O1 (racemic) [AF125, 2-Methyl-spiro(1,3 oxazoline-5,3')quinuclidine]",Altered spontaneous motor activity (Mot),[1]; 5 mg/kg i.v.,dec
same,Lacrimation (Lac),[1]; 5 mg/kg i.v.,sli
same,Mydriasis (Myd),[1]; 5 mg/kg i.v.,sli
same,Salivation (Sal),[1]; 5 mg/kg i.v.,sli
same,Analgesia (Ana),[1]; 5 mg/kg i.v.,5/5
same,Convulsive seizure (Con),[1]; 5 mg/kg i.v.,0/5
same,Respiratory distress (Res),[1]; 5 mg/kg i.v.,0/5
same,Tremors (Tre),[1]; 5 mg/kg i.v.,0/5
same,Altered spontaneous motor activity (Mot),[1]; 10 mg/kg i.v.,dec
same,Diarrhea (Dia),[1]; 10 mg/kg i.v.,sli
same,Hypothermia (Hyp),[1]; 10 mg/kg i.v.,sli
same,Lacrimation (Lac),[1]; 10 mg/kg i.v.,sli
same,Mydriasis (Myd),[1]; 10 mg/kg i.v.,sli
same,Piloerection (Pil),[1]; 10 mg/kg i.v.,sli
same,Salivation (Sal),[1]; 10 mg/kg i.v.,mod
same,Analgesia (Ana),[1]; 10 mg/kg i.v.,5/5
same,Convulsive seizure (Con),[1]; 10 mg/kg i.v.,0/5
same,Respiratory distress (Res),[1]; 10 mg/kg i.v.,0/5
same,Tremors (Tre),[1]; 10 mg/kg i.v.,0/5
same,Convulsive seizure (Con),[1]; 10 mg/kg p.os,0/5
same,Respiratory distress (Res),[1]; 10 mg/kg p.os,0/5
same,Tremors (Tre),[1]; 10 mg/kg p.os,0/5
same,Altered spontaneous motor activity (Mot),"[1]; 20 mg/kg i.v., Table 9",dec
same,Diarrhea (Dia),"[1]; 20 mg/kg i.v., Table 9",mod
same,Hypothermia (Hyp),"[1]; 20 mg/kg i.v., Table 9",mod
same,Lacrimation (Lac),"[1]; 20 mg/kg i.v., Table 9",sev
same,Mydriasis (Myd),"[1]; 20 mg/kg i.v., Table 9",mod
same,Piloerection (Pil),"[1]; 20 mg/kg i.v., Table 9",mod
same,Salivation (Sal),"[1]; 20 mg/kg i.v., Table 9",sev
same,Analgesia (Ana),"[1]; 20 mg/kg i.v., Table 9",5/5
same,Convulsive seizure (Con),"[1]; 20 mg/kg i.v., Table 9",0/5
same,Respiratory distress (Res),"[1]; 20 mg/kg i.v., Table 9",1/5
same,Tremors (Tre),"[1]; 20 mg/kg i.v., Table 9",2/5
same,Lacrimation (Lac),[1]; 20 mg/kg p.os,sli
same,Salivation (Sal),[1]; 20 mg/kg p.os,sli
same,Analgesia (Ana),[1]; 20 mg/kg p.os,0/5
same,Convulsive seizure (Con),[1]; 20 mg/kg p.os,0/5
same,Respiratory distress (Res),[1]; 20 mg/kg p.os,0/5
same,Tremors (Tre),[1]; 20 mg/kg p.os,0/5
same,Altered spontaneous motor activity (Mot),[1]; 40 mg/kg i.v.,dec
same,Diarrhea (Dia),[1]; 40 mg/kg i.v.,mod
same,Hypothermia (Hyp),[1]; 40 mg/kg i.v.,mod
same,Lacrimation (Lac),[1]; 40 mg/kg i.v.,sev
same,Mydriasis (Myd),[1]; 40 mg/kg i.v.,mod
same,Piloerection (Pil),[1]; 40 mg/kg i.v.,mod
same,Salivation (Sal),[1]; 40 mg/kg i.v.,sev
same,Analgesia (Ana),[1]; 40 mg/kg i.v.,5/5
same,Convulsive seizure (Con),[1]; 40 mg/kg i.v.,1/5
same,Respiratory distress (Res),[1]; 40 mg/kg i.v.,3/5
same,Tremors (Tre),[1]; 40 mg/kg i.v.,5/5
same,Altered spontaneous motor activity (Mot),[1]; 40 mg/kg p.os,dec
same,Diarrhea (Dia),[1]; 40 mg/kg p.os,sli
same,Hypothermia (Hyp),[1]; 40 mg/kg p.os,sli
same,Lacrimation (Lac),[1]; 40 mg/kg p.os,mod
same,Piloerection (Pil),[1]; 40 mg/kg p.os,sli
same,Salivation (Sal),[1]; 40 mg/kg p.os,sli
same,Analgesia (Ana),[1]; 40 mg/kg p.os,3/5
same,Convulsive seizure (Con),[1]; 40 mg/kg p.os,0/5
same,Respiratory distress (Res),[1]; 40 mg/kg p.os,0/5
same,Tremors (Tre),[1]; 40 mg/kg p.os,0/5
same,Altered spontaneous motor activity (Mot),[1]; 50 mg/kg p.os,dec
same,Diarrhea (Dia),[1]; 50 mg/kg p.os,sli
same,Hypothermia (Hyp),[1]; 50 mg/kg p.os,sli
same,Lacrimation (Lac),[1]; 50 mg/kg p.os,mod
same,Mydriasis (Myd),[1]; 50 mg/kg p.os,sli
same,Piloerection (Pil),[1]; 50 mg/kg p.os,mod
same,Salivation (Sal),[1]; 50 mg/kg p.os,mod
same,Analgesia (Ana),[1]; 50 mg/kg p.os,5/5
same,Convulsive seizure (Con),[1]; 50 mg/kg p.os,0/5
same,Respiratory distress (Res),[1]; 50 mg/kg p.os,0/5
same,Tremors (Tre),[1]; 50 mg/kg p.os,2/5
same,LD50,"[1]; Intravenous Injection, 95% Confidence Limits 66.6 - 71.2",68.9 mg/kg
same,LD50,"[1]; Oral Administration, 95% Confidence Limits 118.4 - 152.5",134.4 mg/kg
"CC1=NCC2(CCN(C)CC2)O1 [AF150, 2-Methyl-spiro(1,3-oxazoline-5,4')-1'-methylpiperidine]",%H (% of high affinity state),"muscarinic receptors; with Cu++ pretreatment (100 µM, 30 minutes)",37%
same,%H (% of high affinity state),"muscarinic receptors; with Cu++ pretreatment (100 µM, 30 minutes), listed as 5",37±2%
same,Ki,"muscarinic receptors; with Cu++ pretreatment (100 µM, 30 minutes), read-out: KH",0.52 ± 0.003 µM
same,Ki,"muscarinic receptors; with Cu++ pretreatment (100 µM, 30 minutes), read-out: KL",18 ± 2 µM
same,%H (% of high affinity state),muscarinic receptors; without pretreatment,14%
same,%H (% of high affinity state),"muscarinic receptors; without pretreatment, listed as 5",14±1%
same,Ki,"muscarinic receptors; without pretreatment, read-out: KH",0.32 µM
same,Ki,"muscarinic receptors; without pretreatment, read-out: KL",33.5 µM
same,slow AHP (Ca++-dependent K+ conductance),[2]; applied topically by microdrops,blocks the slow AHP
same,depolarization,[2]; applied topically by microdrops (AF150: 100 µM),potent depolarizing response
same,input resistance at rest,[2]; microdrops (100 µM),real increase in input resistance at rest
same,postsynaptic potentials (PSPs),[2]; microdrops (100 µM),small reduction in postsynaptic potentials
same,Retention latency after 72 hours,"AF64A-treated rats; AF150 0.1 mg./kg., rats treated with AF64A (3 nmole/2µl./side, icv)",449.5 ± 52.1 s
same,Retention latency after 72 hours,"AF64A-treated rats; AF150 0.1 mg./kg., rats treated with saline",511.8 ± 45.7 s
same,Retention latency after 72 hours,"AF64A-treated rats; AF150 0.2 mg./kg., rats treated with AF64A",481.1 ± 54.3 s
same,Retention latency after 72 hours,"AF64A-treated rats; AF150 0.2 mg./kg., rats treated with saline",479.1 ± 57.2 s
same,Retention latency after 72 hours,"AF64A-treated rats; AF150 1.0 mg./kg., rats treated with AF64A",600.0 ± 0 s
same,Retention latency after 72 hours,"AF64A-treated rats; AF150 1.0 mg./kg., rats treated with saline",571.6 ± 28.4 s
same,retention latency,"AF64A-treated rats; administered orally at 0.2 and 1.0 mg./kg., free base, AF64A-treated rats (not shown)",improved significantly
